Test results reported in ChEMBL document CHEMBL4480422, “Alkyl derivatives of 1,3,5-triazine as histamine H4 receptor ligands” (Bioorg Med Chem, 2019).
The source made the active and inactive calls.

Tests used:
[1] = target: T1, Histamine H4 receptor (Homo sapiens, UniProt Q9H3N8); assay: Displacement of [3H]-histamine from recombinant human H4 receptor expressed in Sf9 cell membranes co-expressing Galphai2/Gbeta1gamma2
[2] = system: Rattus norvegicus; assay: Anti-inflammatory activity in Wistar (Krf:(WI) WU) rat model of carrageenan-induced paw edema assessed as hind paw volume at 25 mg/kg, ip administered as single dose prior to carrageenan challenge and measured after 1 hr by plethysmometer (reference value: 49%); format: functional
[3] = system: Rattus norvegicus; assay: Anti-inflammatory activity in Wistar (Krf:(WI) WU) rat model of carrageenan-induced paw edema assessed as hind paw volume at 25 mg/kg, ip administered as single dose prior to carrageenan challenge and measured after 3 hrs by plethysmometer (reference value: 130%); format: functional
[4] = system: Mus musculus; assay: (§1) Antinociceptive activity in ip dosed formalin-induced nociception pain Albino Swiss CD-1 mouse model assessed as reduction in time spent licking or biting formalin injected right hind paw in inflammatory phase pretreated followed by formalin injection and measured after 15 to 30 mins; format: functional; settings: Swiss CD-1, ip
[5] = system: Rattus norvegicus; assay: Anti-inflammatory activity in Wistar (Krf:(WI) WU) rat model of carrageenan-induced paw edema assessed as hind paw volume at 25 mg/kg, ip administered as single dose prior to carrageenan challenge and measured after 2 hrs by plethysmometer (reference value: 103%); format: functional
[6] = target: Histamine H1 receptor (Cavia porcellus, UniProt P31389); assay: Antagonist activity at histamine H1 receptor in guinea-pig ileum assessed as inhibition of histamine-induced contractions after 15 mins; format: tissue-based; settings: read-out: pA2 (converted)
[7] = target: Histamine H1 receptor (Cavia porcellus) (UniProt P31389); assay: Agonist activity at histamine H1 receptor in guinea-pig ileum assessed as induction of contractions after 15 mins; format: tissue-based
[8] = system: Mus musculus; assay: Effect on spontaneous locomotor activity in Albino Swiss CD-1 mouse assessed as change in number of light beam crossings at 25 to 50 mg/kg, ip treated prior to test and measured for next 30 mins; format: ADME, organism-based; settings: in vivo, 0.5 h
[9] = system: Rattus norvegicus; assay: Anti-inflammatory activity in Wistar (Krf:(WI) WU) rat model of carrageenan-induced paw edema assessed as reduction in hind paw volume administered as single ip dose prior to carrageenan challenge and measured after 1 to 3 hrs by plethysmometer; format: functional, organism-based
[10] = system: Rattus norvegicus; assay: Anti-inflammatory activity in Wistar (Krf:(WI) WU) rat model of carrageenan-induced thermal hyperalgesia assessed as paw withdrawal latency time at 50 mg/kg, ip administered as single dose prior to carrageenan challenge and measured after 1 hr by plantar test (reference value: 4.79 +/- 0.99 s); format: functional
[11] = system: Rattus norvegicus; assay: Anti-inflammatory activity in Wistar (Krf:(WI) WU) rat model of carrageenan-induced thermal hyperalgesia assessed as paw withdrawal latency time at 25 mg/kg, ip administered as single dose prior to carrageenan challenge and measured after 3 hrs by plantar test (reference value: 3.03 +/- 0.4 s); format: functional
[12] = Neurotoxicity in Albino Swiss CD-1 mouse assessed as motor impairment at 25 to 75 mg/kg, ip treated 30 mins prior to test by rotarod test; format: toxicity, organism-based; settings: in vivo, 0.5 h
[13] = system: Rattus norvegicus; assay: Anti-inflammatory activity in Wistar (Krf:(WI) WU) rat model of carrageenan-induced paw edema assessed as hind paw volume at 12.5 mg/kg, ip administered as single dose prior to carrageenan challenge and measured after 1 hr by plethysmometer (reference value: 49%); format: functional
[14] = system: Rattus norvegicus; assay: Anti-inflammatory activity in Wistar (Krf:(WI) WU) rat model of carrageenan-induced thermal hyperalgesia assessed as paw withdrawal latency time at 50 mg/kg, ip administered as single dose prior to carrageenan challenge and measured after 3 hrs by plantar test (reference value: 3.03 +/- 0.4 s); format: functional
[15] = target: T1, Histamine H4 receptor; assay: Antagonist activity at recombinant human H4 receptor expressed in CHOK1 cells co-expressing Galpha16/aequorin assessed as inhibition of histamine-induced intracellular calcium flux preincubated for 30 mins followed by histamine addition and measured for 30 secs in presence of coelenterazine by luminescence assay; format: functional, cell-based
[16] = system: Rattus norvegicus; assay: Anti-inflammatory activity in Wistar (Krf:(WI) WU) rat model of carrageenan-induced paw edema assessed as hind paw volume at 50 mg/kg, ip administered as single dose prior to carrageenan challenge and measured after 2 hrs by plethysmometer (reference value: 103%); format: functional
[17] = system: Rattus norvegicus; assay: Anti-inflammatory activity in Wistar (Krf:(WI) WU) rat model of carrageenan-induced thermal hyperalgesia assessed as paw withdrawal latency time at 50 mg/kg, ip administered as single dose prior to carrageenan challenge and measured after 2 hrs by plantar test (reference value: 4.03 +/- 0.7 s); format: functional
[18] = target: T2, Muscarinic acetylcholine receptor M3 (Cavia porcellus, UniProt Q8VH26); assay: Antagonist activity at muscarinic M3 receptor in guinea-pig ileum assessed as inhibition of carbachol-induced contractions after 15 mins; format: tissue-based; settings: read-out: pA2 (converted)
[19] = target: T1, Histamine H4 receptor; settings: Sf9
[20] = system: Rattus norvegicus; assay: Anti-inflammatory activity in Wistar (Krf:(WI) WU) rat model of carrageenan-induced mechanical hyperalgesia assessed as increase in paw withdrawal threshold at 12.5 to 50 mg/kg, ip administered as single dose prior to carrageenan challenge and measured after 3 hrs; format: functional, organism-based
[21] = system: Rattus norvegicus; assay: Anti-inflammatory activity in Wistar (Krf:(WI) WU) rat model of carrageenan-induced paw edema assessed as hind paw volume at 50 mg/kg, ip administered as single dose prior to carrageenan challenge and measured after 1 hr by plethysmometer (reference value: 49%); format: functional
[22] = target: T1, Histamine H4 receptor; assay: Agonist activity at recombinant human H4 receptor expressed in CHOK1 cells co-expressing Galpha16/aequorin assessed as increase in intracellular calcium flux incubated for 1 hr measured for 30 secs in presence of coelenterazine by luminescence assay; format: functional, cell-based
[23] = target: T1, Histamine H4 receptor; assay: Agonist activity at recombinant human H4 receptor expressed in Sf9 cell membranes co-expressing Galphai2/Gbeta1gamma2 measured after 1 hr in presence of [35S]GTPgammaS by liquid scintillation counting method; format: functional
[24] = system: Rattus norvegicus; assay: Anti-inflammatory activity in Wistar (Krf:(WI) WU) rat model of carrageenan-induced paw edema assessed as hind paw volume at 12.5 mg/kg, ip administered as single dose prior to carrageenan challenge and measured after 3 hrs by plethysmometer (reference value: 130%); format: functional
[25] = system: Mus musculus; assay: Antinociceptive activity in formalin-induced nociception pain Albino Swiss CD-1 mouse model assessed as reduction in time spent licking or biting formalin injected right hind paw in early phase at 75 mg/kg, ip pretreated followed by formalin injection and measured up to 5 mins; format: functional, organism-based
[26] = target: T2, Muscarinic acetylcholine receptor M3; assay: Agonist activity at muscarinic M3 receptor in guinea-pig ileum assessed as induction of contractions after 15 mins; format: tissue-based; settings: 0.25 h
[27] = system: Mus musculus; assay: Effect on spontaneous locomotor activity in Albino Swiss CD-1 mouse assessed as decrease in number of light beam crossings at 75 mg/kg, ip treated prior to test and measured for next 30 mins relative to control; format: ADME, organism-based; set-up: scale not given: the % may be the effect or the level left; settings: in vivo, 0.5 h
[28] = system: Rattus norvegicus; assay: Anti-inflammatory activity in Wistar (Krf:(WI) WU) rat model of carrageenan-induced thermal hyperalgesia assessed as paw withdrawal latency time at 25 mg/kg, ip administered as single dose prior to carrageenan challenge and measured after 2 hrs by plantar test (reference value: 4.03 +/- 0.7 s); format: functional
[29] = system: Rattus norvegicus; assay: Anti-inflammatory activity in Wistar (Krf:(WI) WU) rat model of carrageenan-induced paw edema assessed as hind paw volume at 50 mg/kg, ip administered as single dose prior to carrageenan challenge and measured after 3 hrs by plethysmometer (reference value: 130%); format: functional
[30] = system: Mus musculus; assay: as §1, with “in” for “in ip dosed”, “phase at 50 mg/kg, ip” for “phase”, “mins relative to control” for “mins”; format: functional; set-up: scale not given: the % may be the effect or the level left
[31] = system: Rattus norvegicus; assay: Anti-inflammatory activity in Wistar (Krf:(WI) WU) rat model of carrageenan-induced paw edema assessed as hind paw volume at 12.5 mg/kg, ip administered as single dose prior to carrageenan challenge and measured after 2 hrs by plethysmometer (reference value: 103%); format: functional
[32] = system: Rattus norvegicus; assay: Anti-inflammatory activity in Wistar (Krf:(WI) WU) rat model of carrageenan-induced thermal hyperalgesia assessed as paw withdrawal latency time at 25 mg/kg, ip administered as single dose prior to carrageenan challenge and measured after 1 hr by plantar test (reference value: 4.79 +/- 0.99 s); format: functional
[33] = system: Rattus norvegicus; assay: Anti-inflammatory activity in Wistar (Krf:(WI) WU) rat model of carrageenan-induced mechanical hyperalgesia assessed as increase in paw withdrawal threshold at 25 mg/kg, ip administered as single dose prior to carrageenan challenge and measured after 3 hrs; format: functional, organism-based
[34] = system: Mus musculus; assay: Antinociceptive activity in formalin-induced nociception pain Albino Swiss CD-1 mouse model assessed as reduction in time spent licking or biting formalin injected right hind paw in early phase at 25 mg/kg, ip pretreated followed by formalin injection and measured up to 5 mins; format: functional, organism-based
[35] = system: Mus musculus; assay: as §1, with “in” for “in ip dosed”, “phase at 25 mg/kg, ip” for “phase”, “mins relative to control” for “mins”; format: functional; set-up: scale not given: the % may be the effect or the level left

T1 sequence (Q9H3N8 whole entry): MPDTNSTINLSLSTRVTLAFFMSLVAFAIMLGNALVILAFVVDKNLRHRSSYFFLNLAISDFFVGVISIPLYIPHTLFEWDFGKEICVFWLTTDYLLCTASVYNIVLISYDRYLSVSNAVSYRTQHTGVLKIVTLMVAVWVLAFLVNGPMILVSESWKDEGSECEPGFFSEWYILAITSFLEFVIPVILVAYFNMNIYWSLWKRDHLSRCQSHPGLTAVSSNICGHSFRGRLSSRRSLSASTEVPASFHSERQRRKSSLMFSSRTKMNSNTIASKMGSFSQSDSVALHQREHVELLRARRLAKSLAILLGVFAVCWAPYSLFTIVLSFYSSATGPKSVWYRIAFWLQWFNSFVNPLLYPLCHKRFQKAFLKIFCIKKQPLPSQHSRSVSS
T2 sequence (Q8VH26 whole entry): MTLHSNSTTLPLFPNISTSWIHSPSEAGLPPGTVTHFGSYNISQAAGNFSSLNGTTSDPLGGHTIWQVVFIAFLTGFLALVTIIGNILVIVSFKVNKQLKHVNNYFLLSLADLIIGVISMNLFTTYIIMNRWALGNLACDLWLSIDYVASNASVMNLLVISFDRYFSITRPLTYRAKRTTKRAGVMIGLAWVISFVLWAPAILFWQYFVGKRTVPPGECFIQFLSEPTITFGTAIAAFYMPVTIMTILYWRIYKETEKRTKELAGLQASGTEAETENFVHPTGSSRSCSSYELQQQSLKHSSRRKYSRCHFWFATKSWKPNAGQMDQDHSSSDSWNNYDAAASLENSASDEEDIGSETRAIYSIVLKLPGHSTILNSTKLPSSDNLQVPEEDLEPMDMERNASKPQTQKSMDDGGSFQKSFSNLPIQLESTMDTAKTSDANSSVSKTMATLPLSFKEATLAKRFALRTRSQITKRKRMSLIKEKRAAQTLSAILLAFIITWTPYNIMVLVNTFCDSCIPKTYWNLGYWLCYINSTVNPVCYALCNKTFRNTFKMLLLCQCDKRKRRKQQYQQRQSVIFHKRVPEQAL
Histamine H1 receptor (Cavia porcellus), sequence (P31389 whole entry): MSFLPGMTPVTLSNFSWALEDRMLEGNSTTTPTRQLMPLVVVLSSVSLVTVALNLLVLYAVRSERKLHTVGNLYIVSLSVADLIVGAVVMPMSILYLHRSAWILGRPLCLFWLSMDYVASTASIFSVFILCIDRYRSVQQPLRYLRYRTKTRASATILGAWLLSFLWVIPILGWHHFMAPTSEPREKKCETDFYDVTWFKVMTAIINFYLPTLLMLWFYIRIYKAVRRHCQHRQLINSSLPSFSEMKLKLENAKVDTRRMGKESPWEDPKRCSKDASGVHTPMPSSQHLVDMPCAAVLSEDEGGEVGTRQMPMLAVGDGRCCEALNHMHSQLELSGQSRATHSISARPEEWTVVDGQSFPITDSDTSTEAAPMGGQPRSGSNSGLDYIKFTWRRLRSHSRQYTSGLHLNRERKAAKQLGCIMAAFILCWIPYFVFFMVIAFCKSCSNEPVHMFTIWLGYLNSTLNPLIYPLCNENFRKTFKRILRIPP
Histamine H1 receptor, sequence (P31389 whole entry): as above

For `COCc1nc(N)nc(N2CCN(C)CC2)n1`, the Ki [1] was greater than 10000 nM.

In the case of `CCC(CC)c1nc(N)nc(N2CCN(C)CC2)n1`, the Ki [1] is reported as 1330 nM.

For `CN1CCN(c2nc(N)nc(CC3CCCCC3)n2)CC1`, the Activity [2] was 19.56%, the Activity [3] was 84.3% and the ED50 [4] was 54.8 mg/kg. The Activity [5] was 41.3%, the Kb [6] was 1230 nM and the Activity [7] was “inactive”. For the same compound, the Activity [8] was “Non-Toxic”, the Activity [9] was “Dose-dependent effect” and the Time [10] was 9.43 s. The Time [11] was 7.06 s, the Activity [12] was “Non-Toxic” and the Activity [13] was 25.47%. For the same compound, the Time [14] was 9.03 s, the IC50 [15] was 32 nM and the Activity [16] was 21.73%. The Time [17] was 10.05 s, the Kb [18] was 2040 nM and the pKb [19] was 6.67 to 6.7. For the same compound, the Activity [20] was “Active”, the Activity [21] was 8.69% and the Activity [22] was “inactive”. The Activity [23] was “inactive”, the Activity [24] was 83.96% and the Ki [1] was 160 nM. For the same compound, the Activity [25] was “Active”, the Activity [26] was “Not Active” and the Activity [27] was 23.84%. For the same compound, the Time [28] was 9.78 s, the Activity [29] was 57.37% and the Activity [30] was 59.83%. The Activity [31] was 53.77% and the Time [32] was “<=10.49 s”.

`CN1CCN(c2nc(N)nc(CC(C)(C)C)n2)CC1` gave a Ki [1] of 247 nM.

For `CCCc1nc(N)nc(N2CCN(C)CC2)n1`, the IC50 [15] was 265 nM, the Activity [22] was “inactive” and the Ki [1] was 185 nM.

In the case of `CN1CCN(C(=O)c2cc3cc(Cl)ccc3[nH]2)CC1` [JNJ-7777120], the Activity [2] is reported as 22.11%, the Activity [3] is reported as 63.66% and the Activity [33] is reported as “Active”. For the same compound, the Activity [5] was 47.4%, the Activity [34] was “inactive” and the Activity [35] was 60.68%. It also gave a Time [28] of 8.39 s and a Time [32] of 9.14 s.

In the case of `Cc1nc(N)nc(N2CCN(C)CC2)n1`, the Ki [1] is reported as 2660 nM.

Work on `CCc1nc(N)nc(N2CCN(C)CC2)n1` yielded a Ki [1] of 812 nM.

In the case of `CC(C)c1nc(N)nc(N2CCN(C)CC2)n1`, the Ki [1] is reported as 277 nM.

With `CN1CCN(c2nc(N)nc(CCC3CCCCC3)n2)CC1` the Ki [1] was 2850 nM.

For `CCC(C)c1nc(N)nc(N2CCN(C)CC2)n1` (stereo not given), the Ki [1] was 725 nM.

Work on `CC(C)=Cc1nc(N)nc(N2CCN(C)CC2)n1` yielded a Ki [1] of 470 nM.

`CN1CCN(c2nc(N)nc(C(C)(C)C)n2)CC1` gave a Ki [1] of 1080 nM.

`CN1CCN(c2nc(N)nc(CCCC3CCCCC3)n2)CC1` showed a Ki [1] greater than 10000 nM.

`CC(C)Cc1nc(N)nc(N2CCN(C)CC2)n1` showed a Ki [1] of 529 nM.
